The compounds below were run against T1, recombinant human GST-SYK (Homo sapiens, UniProt P43405) (assay: Homogeneous Time-Resolved Fluorescence (HTRF) assay for the recombinant human Syk enzyme). Conditions: HTRF assay, recombinant human GST-SYK; IC50 given as class symbols; read-out: rhSYK Activity.
T1 construct: purchased Carna Biosciences 08-176
Format: biochemical
Summary of the method: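 Phosphorylation of a biotinylated Syk substrate peptide (250 nM) was run for 45 min at room temperature with 25 μM ATP and 5 mM Mg. It followed a 10-min preincubation of GST-hSYK ([…]) with compound in 15 mM Tris-HCl pH 7.5, 2 mM DTT. Product was detected by time-resolved fluorescence using a europium anti-phosphotyrosine antibody plus SA-APC in EDTA-containing quench buffer.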

IC50 [nM] | Compound
< 100 | COc1ccnc(Nc2cc(C)cc(-c3cncc(CCC(=O)O)c3)c2)n1 [Example 2.84, 3-(5-{3-[(4-methoxypyrimidin-2-yl)amino]-5-methylphenyl}pyridin-3-yl)propanoic acid]
< 100 | Cc1cc(Nc2nccc(C(F)(F)F)n2)cc(-c2cncc(CCC(=O)O)c2)c1 [Example 2.86, 3-[5-(3-methyl-5-{[4-(trifluoromethyl)pyrimidin-2-yl]amino}phenyl)pyridin-3-yl]propanoic acid]
100 to 1000 | CCOC(=O)CCc1ccc(-c2cc(C)cc(Nc3nccc(C)n3)c2)cn1 [Example 2.87, ethyl 3-(5-{3-methyl-5-[(4-methylpyrimidin-2-yl)amino]phenyl}pyridin-2-yl)propanoate]
100 to 1000 | CCOC(=O)CCc1cncc(-c2cc(C)cc(Nc3nccc(C)n3)c2)c1 [Example 2.88, ethyl 3-(5-{3-methyl-5-[(4-methylpyrimidin-2-yl)amino]phenyl}pyridin-3-yl)propanoate]
< 100 | Cc1cc(Nc2nccc(C)n2)cc(-c2ccc(CCC(=O)O)nc2)c1 [Example 2.89, 3-(5-{3-methyl-5-[(4-methylpyrimidin-2-yl)amino]phenyl}pyridin-2-yl)propanoic acid]
100 to 1000 | Cc1cc(Nc2nccc(C)n2)cc(-c2cncc(CCC(=O)O)c2)c1 [Example 2.90, 3-(5-{3-methyl-5-[(4-methylpyrimidin-2-yl)amino]phenyl}pyridin-3-yl)propanoic acid]
< 100 | CCOC(=O)CCc1cncc(-c2cc(C)cc(Nc3nccc(C4CC4)n3)c2)c1 [Example 2.100]
< 100 | Cc1cc(Nc2nccc(C3CC3)n2)cc(-c2ccc(CCC(=O)O)nc2)c1 [Example 2.101, 3-(5-{3-[(4-cyclopropylpyrimidin-2-yl)amino]-5-methylphenyl}pyridin-2-yl)propanoic acid]
< 100 | Cc1cc(Nc2nccc(C3CC3)n2)cc(-c2cncc(CCC(=O)O)c2)c1 [Example 2.102, 3-(5-{3-[(4-cyclopropylpyrimidin-2-yl)amino]-5-methylphenyl}pyridin-3-yl)propanoic acid]
< 100 | CCOC(=O)CCc1ccc(-c2cc(C)cc(Nc3nccc(C4CC4)n3)c2)cn1 [Example 2.103, ethyl 3-(5-{3-[(4-cyclopropylpyrimidin-2-yl)amino]-5-methylphenyl}pyridin-2-yl)propanoate]
< 100 | Cc1cc(Nc2nccc(C3CC3)n2)cc(-c2ccc(N[C@H]3CC[C@H](C(=O)O)CC3)nc2)c1 [Example 2.104, trans-4-[(5-{3-[(4-cyclopropylpyrimidin-2-yl)amino]-5-methylphenyl}pyridin-2-yl)amino]cyclohexanecarboxylic acid]
< 100 | COc1ccnc(Nc2cc(C)cc(-c3ccc(N[C@H]4CC[C@H](C(=O)O)CC4)nc3)c2)n1 [Example 2.105, trans-4-[(5-{3-[(4-methoxypyrimidin-2-yl)amino]-5-methylphenyl}pyridin-2-yl)amino]cyclohexanecarboxylic acid]
< 100 | Cc1cc(Nc2nccc(C)n2)cc(-c2ccc(N[C@H]3CC[C@H](C(=O)O)CC3)nc2)c1 [Example 2.106, trans-4-[(5-{3-methyl-5-[(4-methylpyrimidin-2-yl)amino]phenyl}pyridin-2-yl)amino]cyclohexanecarboxylic acid]
< 100 | Cc1ccnc(Nc2cccc(-c3ccc(N[C@H]4CC[C@H](C(=O)O)CC4)nc3)c2)n1 [Example 2.107, trans-4-[(5-{3-[(4-methylpyrimidin-2-yl)amino]phenyl}pyridin-2-yl)amino]cyclohexanecarboxylic acid]
< 100 | Cc1cc(Nc2nccc(C(C)C)n2)cc(-c2ccc(N[C@H]3CC[C@H](C(=O)O)CC3)nc2)c1 [Example 2.108, trans-4-{[5-(3-methyl-5-{[4-(1-methylethyl)pyrimidin-2-yl]amino}phenyl)pyridin-2-yl]amino}cyclohexanecarboxylic acid]
< 100 | Cc1cc(Nc2nccc(C(F)(F)F)n2)cc(-c2ccc(NC(=O)CC#N)nc2)c1 [Example 2.109, 2-cyano-N-[5-(3-methyl-5-{[4-(trifluoromethyl)pyrimidin-2-yl]amino}phenyl)pyridin-2-yl]acetamide]
< 100 | Cc1cc(Nc2nccc(C(F)(F)F)n2)cc(-c2ccc(OC3CCC(C(=O)O)CC3)nc2)c1 (centres unmarked) [Example 2.110, 4-{[5-(3-methyl-5-{[4-(trifluoromethyl)pyrimidin-2-yl]amino}phenyl)pyridin-2-yl]oxy}cyclohexanecarboxylic acid]
< 100 | Cc1cc(Nc2nccc(C(F)(F)F)n2)cc(-c2ccc(OC3CCC(C(=O)O)CC3)nc2)c1 (centres unmarked) [Example 2.111, 4-{[5-(3-methyl-5-{[4-(trifluoromethyl)pyrimidin-2-yl]amino}phenyl)pyridin-2-yl]oxy}cyclohexanecarboxylic acid]
< 100 | Cc1cc(Nc2nccc(C(F)(F)F)n2)cc(-c2ccc(Oc3ccc(C(=O)O)cc3)nc2)c1 [Example 2.112, 4-{[5-(3-methyl-5-{[4-(trifluoromethyl)pyrimidin-2-yl]amino}phenyl)pyridin-2-yl]oxy}benzoic acid]
100 to 1000 | CC(=O)c1ccc(-c2cc(C)cc(Nc3nccc(C(F)(F)F)n3)c2)cn1 [Example 2.113, 1-[5-(3-methyl-5-{[4-(trifluoromethyl)pyrimidin-2-yl]amino}phenyl)pyridin-2-yl]ethanone]
100 to 1000 | Cc1cc(Nc2nccc(C(F)(F)F)n2)cc(-c2ccc(C(C)(O)C(F)(F)F)nc2)c1 (centres unmarked) [Example 2.115, 1,1,1-trifluoro-2-[5-(3-methyl-5-{[4-(trifluoromethyl)pyrimidin-2-yl]amino}phenyl)pyridin-2-yl]propan-2-ol]
< 100 | Cc1cc(Nc2nccc(C(F)(F)F)n2)cc(-c2ccc(C(F)(F)C(=O)O)nc2)c1 [Example 2.116, difluoro[5-(3-methyl-5-{[4-(trifluoromethyl)pyrimidin-2-yl]amino}phenyl)pyridin-2-yl]acetic acid]
< 100 | Cc1cc(Nc2nccc(C(F)(F)F)n2)cc(-c2ccc(C(F)(F)CO)nc2)c1 [Example 2.117, 2,2-difluoro-2-[5-(3-methyl-5-{[4-(trifluoromethyl)pyrimidin-2-yl]amino}phenyl)pyridin-2-yl]ethanol]
100 to 1000 | COc1nc(Nc2cc(C)cc(-c3ccc(N[C@H]4CC[C@H](C(=O)O)CC4)nc3)c2)ncc1Cl [Example 2.118, trans-4-[(5-{3-[(5-chloro-4-methoxypyrimidin-2-yl)amino]-5-methylphenyl}pyridin-2-yl)amino]cyclohexanecarboxylic acid]
< 100 | Cc1cc(Nc2ncc(Cl)c(C)n2)cc(-c2ccc(N[C@H]3CC[C@H](C(=O)O)CC3)nc2)c1 [Example 2.119, trans-4-[(5-{3-[(5-chloro-4-methylpyrimidin-2-yl)amino]-5-methylphenyl}pyridin-2-yl)amino]cyclohexanecarboxylic acid]
< 100 | Cc1cc(Nc2ncc(F)c(C)n2)cc(-c2ccc(N[C@H]3CC[C@H](C(=O)O)CC3)nc2)c1 [Example 2.120, trans-4-[(5-{3-[(5-fluoro-4-methylpyrimidin-2-yl)amino]-5-methylphenyl}pyridin-2-yl)amino]cyclohexanecarboxylic acid]

From US9376418B2, “Substituted pyridine spleen tyrosine kinase (SYK) inhibitors” (Merck Sharp & Dohme Corp., priority 2012, dated 2016)
